Laboratory results from ChEMBL document CHEMBL1158692, “Lajollamycin, a nitro-tetraene spiro-beta-lactone-gamma-lactam antibiotic from the marine actinomycete Streptomyces nodosus” (J Nat Prod, 2005).
Values after ≈ are worked out from the molar mass of the structure shown.

How the values were obtained:
Staphylococcus aureus [1] = assay: Antimicrobial activity against methicillin-sensitive Staphylococcus aureus after 14 to 16 hrs; format: functional
Staphylococcus aureus [2] = assay: Antimicrobial activity against methicillin-resistant Staphylococcus aureus after 14 to 16 hrs; format: functional
Streptococcus pneumoniae [3] = assay: Antimicrobial activity against penicillin-sensitive Streptococcus pneumoniae after 14 to 16 hrs; format: functional
Streptococcus pneumoniae [4] = assay: Antimicrobial activity against penicillin-resistant Streptococcus pneumoniae after 14 to 16 hrs; format: functional
Enterococcus faecalis = assay: Antimicrobial activity against vancomycin-sensitive Enterococcus faecalis after 14 to 16 hrs; format: functional
Enterococcus faecium = assay: Antimicrobial activity against vancomycin-resistant Enterococcus faecium after 14 to 16 hrs; format: functional
Escherichia coli = assay: Antimicrobial activity against Escherichia coli after 14 to 16 hrs; format: functional
B16-F10 = assay: Cytotoxicity against mouse B16F10 cells after 3 to 6 hrs; format: functional, cell-based

COC(CC(C)C(O)/C=C/C=C/CNC(=O)C(C)(C)C(O)\C(C)=C/C=C\C=C\C(C)=C(/C)[N+](=O)[O-])C1(O)C(C)C(=O)N(C)C12C(=O)OC2C (stereo not drawn) [LAJOLLAMYCIN]
MIC (Staphylococcus aureus [1]): 4 µg/mL (≈ 5.82 µM) | MIC (Staphylococcus aureus [2]): 5 µg/mL (≈ 7.27 µM) | MIC (Streptococcus pneumoniae [3]): 2 µg/mL (≈ 2.91 µM) | MIC (Streptococcus pneumoniae [4]): 1.5 µg/mL (≈ 2.18 µM) | MIC (Enterococcus faecalis): 14 µg/mL (≈ 20.4 µM) | MIC (Enterococcus faecium): 20 µg/mL (≈ 29.1 µM) | MIC (Escherichia coli): 12 µg/mL (≈ 17.4 µM) | EC50 (B16-F10): 9.6 µM
